Source: patent publication US11584749B2, “Phosphor-tetrazine compound and use thereof” (Spark Biopharma, Inc., priority 2018, dated 2023)

Legend:
[1] = Change in emission properties (quantum yield, excitation/emission maxima, fluorescence amplification) before and after reaction with TCO; type: physicochemical; conditions: for fluorescence amplification rate (on/off): before and after reaction with TCO; for fluorescence signal amplification efficiency after the reaction with TCO: long wavelength range, diethylamino group at R1
Procedure: (§1) In this test, the absorption spectrum was measured with a UV-VIS spectrophotometer UV-1650PC (Shimadzu), and the emission spectrum and motion data were measured using a Cary Eclipse Fluorescence spectrophotometer (Varian Associates), and the absolute quantum yield was measured with a QE-2000 (Otsuka Electronics).
The emission spectrum was compared when the maximum fluorescence intensity was reached before and after the reaction of the compound and TCO, and changes in fluorescence of the compounds of Examples 1 to 4 and Comparative Examples 1 to 4 were observed, and the results are shown in Table 1 below.
The emission spectrum was compared when the maximum fluorescence intensity was reached before and after the reaction of the compound and TCO, and changes in fluorescence of the compounds of Examples 1 and 4 and Comparative Examples 3 to 6 were observed, and the results are shown in Table 2 below, FIGS. 3 and 4.

[2] = Second rate constant of the reaction with TCO; type: physicochemical
Procedure: as §1

[3] = tested on: mitochondria (HeLa cells); experiment: Fluorescence imaging of mitochondria in living HeLa cells pre-treated with TPP-TCO; type: cell-based, human
Procedure: (§2) The fluorescence imaging test was performed using a DeltaVision Elite imaging system of GE Healthcare, and an Olympus IX-71 microscope was used.
In order to confirm the fluorescence imaging of mitochondria in living cells, it was tested by the following method.
HeLa cells were incubated for 1 hour in the presence or absence of triphenylphosphonium (TPP)-TCO, and then HeLa cells were washed and treated with the compound of Example 5 or Example 6.
In addition, in order to confirm the selectivity of TPP-TCO and Example 5, and TPP-TCO and Example 6 for mitochondria, HeLa cells were treated with MitoTracker Deep Red, a mitochondria coloring dye, As a result, it was observed that the position of the fluorescence signal of MitoTracker Deep Red was consistent with that of Example 5 or Example 6.

[4] = tested on: microtubule (HeLa human cervical cancer cells); experiment: Fluorescence bio-imaging of microtubule in fixed HeLa cells pre-treated with Docetaxel-TCO conjugate; type: cell-based
Procedure: as §2
Docetaxel-TCO conjugate (Dox-TCO) was used for fluorescence bio-imaging of microtubule. HeLa human cervical cancer cells were fixed, and cultured with Dox-TCO for 1 hour, and then washed with PBS.

| SMILES | λem maximum emission wavelength ([1]; Table 2) | λex largest excitation maxima at a given maximum emission wavelength ([1]; Table 2) | Φon absolute quantum yield after the reaction with TCO ([1]; Table 2) | fluorescence amplification rate (on/off) ([1]; Table 2) | Φoff absolute quantum yield before the reaction with TCO ([1]; Table 2) | fluorescence signal amplification efficiency after the reaction with TCO ([1]; Table 2) | K2 second rate constant value ([2]; Table 2, measured at 20° C.) | λem maximum emission wavelength ([1]; Table 1) | λex largest excitation maxima at a given maximum emission wavelength ([1]; Table 1) | Φon absolute quantum yield after the reaction with TCO ([1]; Table 1) | fluorescence amplification rate (on/off) ([1]; Table 1) | Φoff absolute quantum yield before the reaction with TCO ([1]; Table 1) | K2 second rate constant value ([2]; Table 1, measured at 20° C.) | position of fluorescence signal versus MitoTracker Deep Red ([3]; HeLa cells, TPP-TCO and compound) | fluorescence mitochondria image ([3]; living HeLa cells treated with TPP-TCO for 1 hour, then compound) | fluorescence expression intensity in the extracellular region ([3]; living HeLa cells treated with TPP-TCO, then compound) | fluorescence signal on addition to cells ([4]; fixed HeLa cells cultured with Dox-TCO for 1 hour, washed with PBS) | specificity of staining, immunofluorescence with α-tubulin antibody ([4]; fixed HeLa cells, Dox-TCO) |
| --- | --- | --- | --- | --- | --- | --- | --- | --- | --- | --- | --- | --- | --- | --- | --- | --- | --- | --- |
| CCN(CC)c1ccc(-c2c3c(n4ccc(C(=O)NCc5ccc(-c6nnc(C)nn6)cc5)cc24)C(=O)N(CCCNC(=O)OC(C)(C)C)C3)cc1 [Comparative Example 5, tert-butyl (3-(9-(4-(diethylamino)phenyl)-7-((4-(6-methyl-1,2,4,5-tetrazin-3-yl)benzyl)carbamoyl)-3-oxo-1,3-dihydro-2H-pyrrolo[3,4-b]indolizin-2-yl)propyl)carbamate] | 608 nm | 418 nm | 0.016 | 30 | 0.005 | significantly reduced | 15 m^−1s^−1 |  |  |  |  |  |  |  |  |  |  |  |
| Cc1nnc(-c2ccn3c4c(c(-c5ccc(N)cc5)c3c2)CN(CCCNC(=O)OC(C)(C)C)C4=O)nn1 [Example 3, tert-butyl (3-(9-(4-aminophenyl)-7-(6-methyl-1,2,4,5-tetrazin-3-yl)-3-oxo-1,3-dihydro-2H-pyrrolo[3,4-b]indolizin-2-yl)propyl)carbamate] |  |  |  |  |  |  |  | 562 nm | 390 nm | 0.064 | >600 | 0.002 | 22 m^−1s^−1 |  |  |  |  |  |
| Cc1nnc(-c2ccn3c4c(c(-c5ccccc5)c3c2)CN(CCCN2CCN(CCC(=O)O)CC2)C4=O)nn1 [Example 5, 3-(4-(3-(7-(6-methyl-1,2,4,5-tetrazin-3-yl)-3-oxo-9-phenyl-1,3-dihydro-2H-pyrrolo[3,4-b]indolizin-2-yl)propyl)piperazin-1-yl)propanoic acid] |  |  |  |  |  |  |  |  |  |  |  |  |  | consistent | a clear fluorescence mitochondria image was observed | 0 | a bright fluorescence signal was generated | microtubule specific staining |
| CC(=O)c1ccn2c3c(c(-c4ccc(C(=O)NCc5ccc(-c6nnc(C)nn6)cc5)cc4)c2c1)CN(CCCNC(=O)OC(C)(C)C)C3=O [Comparative Example 2, tert-butyl (3-(7-acetyl-9-(4-((4-(6-methyl-1,2,4,5-tetrazin-3-yl)benzyl)carbamoyl)phenyl)-3-oxo-1,3-dihydro-2H-pyrrolo[3,4-b]indolizin-2-yl)propyl)carbamate] |  |  |  |  |  |  |  | 522 nm | 401 nm | 0.583 | 14 | 0.042 | 15 m^−1s^−1 |  |  |  |  |  |
| COc1ccc(-c2c3c(n4ccc(-c5nnc(C)nn5)cc24)C(=O)N(CCCNC(=O)OC(C)(C)C)C3)cc1 [Example 2, tert-butyl (3-(9-(4-methoxyphenyl)-7-(6-methyl-1,2,4,5-tetrazin-3-yl)-3-oxo-1,3-dihydro-2H-pyrrolo[3,4-b]indolizin-2-yl)propyl)carbamate] |  |  |  |  |  |  |  | 505 nm | 383 nm | 0.485 | >1,000 | 0.001 | 23 m^−1s^−1 |  |  |  |  |  |
| Cc1nnc(-c2ccc(CNC(=O)c3ccn4c5c(c(-c6ccccc6)c4c3)CN(CCCNC(=O)OC(C)(C)C)C5=O)cc2)nn1 [Comparative Example 3, tert-butyl (3-(7-((4-(6-methyl-1,2,4,5-tetrazin-3-yl)benzyl)carbamoyl)-3-oxo-9-phenyl-1,3-dihydro-2H-pyrrolo[3,4-b]indolizin-2-yl)propyl)carbamate] | 493 nm | 375 nm | 0.616 | 67 | 0.012 |  | 15 m^−1s^−1 | 493 nm | 375 nm | 0.616 | 67 | 0.012 | 15 m^−1s^−1 |  |  |  |  |  |
| Cc1nnc(-c2ccn3c4c(c(-c5ccccc5)c3c2)CN(CCCNC(=O)OC(C)(C)C)C4=O)nn1 [Example 1, tert-butyl (3-(7-(6-methyl-1,2,4,5-tetrazin-3-yl)-3-oxo-9-phenyl-1,3-dihydro-2H-pyrrolo[3,4-b]indolizin-2-yl)propyl)carbamate] | 484 nm | 375 nm | 0.683 | >1,000 | 0.002 | excellent | 24 m^−1s^−1 | 484 nm | 375 nm | 0.683 | >1,000 | 0.002 | 24 m^−1s^−1 |  |  |  |  |  |
| CCN(CC)c1ccc(-c2c3c(n4ccc(C(C)=O)cc24)C(=O)N(CCCNC(=O)CCC(=O)NCc2ccc(-c4nnc(C)nn4)cc2)C3)cc1 [Comparative Example 6, N^1-(3-(7-acetyl-9-(4-(diethylamino)phenyl)-3-oxo-1,3-dihydro-2H-pyrrolo[3,4-b]indolizin-2-yl)propyl)-N^4-(4-(6-methyl-1,2,4,5-tetrazin-3-yl)benzyl)succinimide] | 625 nm | 438 nm | 0.028 | 3 | 0.013 | significantly reduced | 1.2 m^−1s^−1 |  |  |  |  |  |  |  |  |  |  |  |
| CC(=O)c1ccn2c3c(c(-c4ccccc4)c2c1)CN(CCCNC(=O)CCC(=O)NCc1ccc(-c2nnc(C)nn2)cc1)C3=O [Comparative Example 4, N^1-(3-(7-acetyl-3-oxo-9-phenyl-1,3-dihydro-2H-pyrrolo[3,4-b]indolizin-2-yl)propyl)-N^4-(4-(6-methyl-1,2,4,5-tetrazin-3-yl)benzyl)succinimide] | 530 nm | 401 nm | 0.325 | 24 | 0.017 |  | 8.5 m^−1s^−1 | 530 nm | 401 nm | 0.325 | 24 | 0.017 | 8.5 m^−1s^−1 |  |  |  |  |  |
| CCN(CC)c1ccc(-c2c3c(n4ccc(-c5nnc(C)nn5)cc24)C(=O)N(CCCNC(=O)OC(C)(C)C)C3)cc1 [Example 4, tert-butyl (3-(9-(4-(diethylamino)phenyl)-7-(6-methyl-1,2,4,5-tetrazin-3-yl)-3-oxo-1,3-dihydro-2H-pyrrolo[3,4-b]indolizin-2-yl)propyl)carbamate] | 581 nm | 401 nm | 0.045 | >600 | 0.001 | excellent | 22 m^−1s^−1 | 581 nm | 401 nm | 0.045 | >600 | 0.001 | 22 m^−1s^−1 |  |  |  |  |  |
| CC(=O)c1ccn2c3c(c(-c4ccc(-c5nnc(C)nn5)cc4)c2c1)CN(CCCNC(=O)OC(C)(C)C)C3=O [Comparative Example 1, tert-butyl (3-(7-acetyl-9-(4-(6-methyl-1,2,4,5-tetrazin-3-yl)phenyl)-3-oxo-1,3-dihydro-2H-pyrrolo[3,4-b]indolizin-2-yl)propyl)carbamate] |  |  |  |  |  |  |  | 532 nm | 416 nm | 0.168 | 20 | 0.011 | 21 m^−1s^−1 |  |  |  |  |  |
